Tested on: Pre-osteoblast cells
Experiment: Pre-osteoblast cells in oestrogen-free environment, hormone with or without silicon, total protein
Protocol: The cells for these respective experiments had also been passaged and maintained in media containing no added silicon (for the subsequent E2 or vehicle alone experiments) or containing 50 micromolar silicon (for the subsequent Si or E2+Si experiments).
Thus in experiments identical to those described above at the 48 hour time point, we investigated the effects of 10^−6 M progesterone instead of oestradiol.

For orthosilicic acid, the total protein (orthosilicic acid 50 micromolar without E2, oestrogen-free environment, FIG. 2) was “no significant effect”.

For `C[C@]12CC[C@@H]3c4ccc(O)cc4CC[C@H]3[C@@H]1CC[C@@H]2O` [oestradiol], the total protein concentration (10^-9 M E2, absence of silicon, varying lengths of time, versus baseline (vehicle), FIG. 2) was “no effect”.

`CC(=O)[C@H]1CC[C@H]2[C@@H]3CCC4=CC(=O)CC[C@]4(C)[C@H]3CC[C@]12C` [progesterone] was tested, and the total protein (10^-6 M progesterone together with silicon (50 micromolar), 48 hour time point, FIG. 4) was “modest effect”.

Source: patent publication US20110311633A1, “Combination of a Silicon Containing Component and a Hormone” (priority 2005, published 2011)
